The record followed here is patent publication US6852744B2, “Pyrrolidine derivatives and their use as chymase inhibitor” (Dainippon Pharmaceutical Co., Ltd., priority 2000, dated 2005).

Each structure is given as a SMILES string. Substitutions are numbered along the chain they refer to.

In data set [1] the target is T1, monkey chymase (Macaca fascicularis, UniProt P56435).
T1 construct: chymase was extracted from homogenized monkey cheek pouch and stomach; from tissue; host or cells: monkey cheek pouch and stomach
T1 sequence (P56435 22-247): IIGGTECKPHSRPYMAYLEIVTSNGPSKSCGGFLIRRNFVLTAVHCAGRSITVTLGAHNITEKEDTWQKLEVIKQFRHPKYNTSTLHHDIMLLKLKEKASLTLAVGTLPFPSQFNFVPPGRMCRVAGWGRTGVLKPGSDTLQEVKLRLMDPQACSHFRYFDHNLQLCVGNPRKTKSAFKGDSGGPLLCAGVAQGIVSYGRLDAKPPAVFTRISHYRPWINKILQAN
Briefly: Monkey chymase inhibitory activity (in vitro, angiotensin I substrate). In kind it is biochemical. Particulars: chymase purified from monkey cheek pouch and stomach; substrate angiotensin I; 37° C.; read-out: Monkey Chymase Inhibition (IC50:nM). The method, then:
(§1) The inhibitory activities of the compounds on monkey chymase and human chymase were tested in vitro. The test compounds are as shown by Compound Nos. in Tables 13 and 14.
Preparation of Monkey Chymase
Chymase was purified from monkey cheek pouch and stomach in the following manner.
Briefly, chymase was extracted from homogenized monkey cheek pouch and stomach with 0.01 mol/1000 ml sodium phosphate buffer, pH 7.4, containing 2 mol/1000 ml KCl and 0.1% Nonidet P-40 (Amresco Inc.). The solution containing chymase was applied to a heparin actigel column, and the chymase-rich fractions were collected.
(§2) Measurement of Chymase Inhibitory Activity (In Vitro Assay)
(§3) Briefly, the purified monkey or human chymase was diluted to an appropriate concentration with 0.01 mol/1000 ml sodium phosphate buffer, pH 7.4, containing 2 mol/1000 ml KCl and 0.1% Nonidet P-40 and used as enzyme solution. Angiotensin I (Peptide Institute Inc.) was diluted with water to 5 mg/ml and used as substrate solution. Test compounds were serially diluted with 10% DMSO. […] After pre-incubation of the mixture at 37° C., 20 μl of the substrate solution was added to the enzyme-test compound mixture and the new mixture was incubated at 37° C. Fifty μl of 30% trichloroacetic acid solution was finally added to stop the enzymatic reaction.
(§4) The amount of L-His-L-Leu was measured as angiotensin II produced by the enzymatic reaction. Briefly, 10 μl of the reaction mixture and 10 μl of 1% orthophthalaldehyde solution dissolved in methanol were mixed with 100 μl of 2 mol/1000 ml NaOH and kept at room temperature. The reaction was then stopped by adding 10 μl of 6 mol/1000 ml HCl.

Data set [2] has as its target T2, human chymase (Homo sapiens, UniProt P23946).
T2 construct: made in house; host or cells: COS7 cells (transient transfection)
T2 sequence (P23946 22-247): T1 sequence (P56435 22-247) with S29F, V44A, K63E, Y159D, L201S, K221Q
Briefly: Human chymase inhibitory activity (in vitro, angiotensin I substrate). In kind it is biochemical. The settings on record: recombinant human chymase (COS7 cells); substrate angiotensin I; 37° C.; read-out: Human Chymase Inhibition (IC50:nM). Here is the method:
as §1
Preparation of Human Chymase
Human chymase was produced in mammalian cells using a recombinant DNA technique.
Construction of a human prochymase expression plasmid was performed in the following manner. Briefly, single stranded cDNA was synthesized from human heart mRNA (Clontech Laboratories, Inc.). Polymerase chain reaction amplification was carried out using the cDNA as a template and appropriate pairs of primers. The primer sequences were determined based on the human preprochymase. The amplified product was cloned into the plasmid pUC18, and then recloned into the plasmid pBluescript II KS(+) (Stratagene). Finally, the DNA fragment carrying the entire protein-coding sequences of the human preprochymase was inserted to a transient expression vector by the usual method to yield the human prochymase expression plasmid.
Transfection of COS7 cells with the human prochymase expression plasmid was carried out using the FuGene™ 6 transfection reagent (Boehringer Mannheim). About 7 hours after exposure to DNA, the culture medium was changed to a serum-free one. The culture supernatant was collected after 2 days culture.
Human prochymase was purified from the culture supernatant using a heparin actigel column as described above in the preparation of monkey chymase.
In order to produce active chymase, the human prochymase was incubated with dipeptidylpeptidase I (Sigma). The resultant active human chymase was purified using a heparin actigel column as described above. The active human chymase was eluted with 0.01 mol/1000 ml sodium phosphate buffer pH 7.4 containing 2 mol/1000 ml NaCl.
as §2
as §3, with “The chymase inhibitory activities of compounds I-A of this invention were measured according to the following method. Briefly,” for “Briefly,”
as §4, with “HCl. Finally, the fluorescence induced by the reaction was measured using in a photometer with an excitation wavelength of 355 nm and an emission wavelength of 460 nm. Chymase inhibitory activities of test compounds were expressed as 50% inhibitory concentration (IC50).” for “HCl.”

The test system of data set [3] is chymase-induced dye leakage. Briefly: Skin permeability test: inhibition of vascular permeability (Evans Blue dye leakage). Type of data set: in vivo. The settings on record: male Hartley guinea pigs, 100 mg/kg orally 1 hour before intradermal injection of human chymase. Here is the method:
Skin permeability test was carried out according to the following method. Briefly, male Hartley guinea pigs (350-460 g, Shizuoka Laboratory Animal Center, Japan) were anesthetized by intraperitoneal injection of Nembutal™ (30 mg/kg; Dainippon Pharmaceutical Co., Ltd., Japan). After shaving the guinea pigs dorsa, 50 μl of purified human chymase (Elastin Products Inc., USA) diluted with phosphate buffered saline (PBS) to a concentration of 1.8 units /55 μg protein/ml (1 unit of chymase represents the amount of chymase required to hydrolyze 1.0 μmole of N-benzoyl-L-tyrosine-ethyl ester (BTEE) per minute at 25° C.; pH 7.8) were injected intradermally into three dorsal sites of each animal. […] The amounts of dye leakage into the dorsal skins were measured according to the following method.
Briefly, the area around each injection site (16 mm diameter) was punched out from the inside of the skin, and the leaked dye was extracted by incubation of the punched skin in N,N-dimethylformamide (DMF, 3 ml) at 55° C. overnight. The absorbance of the dye extract was then measured using a spectrophotometer at a wavelength of 620 nm. […] The amount of chymase-induced dye leakage (ACDL) and the amount of solvent-induced dye leakage (ASDL) in each animal were calculated as the average of dye leakage from the three treated dorsal sites in each case. […]

Data set [4] in a line: Toxicity study, 2 weeks oral. In kind it is in vivo. The settings on record: five-week-old male ddy mice; orally once a day for 2 weeks; 30 and 300 mg/kg/day. The method, then:
Five-week-old male ddy mice were administered orally once a day for 2 weeks with the compound I-A-1 at dose levels of 30 and 300 mg/kg/day.

Data set [5] is described as follows: in vivo. Particulars: male, ddy, mouse, po.
Procedure: Plasma levels of test compounds were measured in the following manner.
Briefly, test compounds were dissolved in DMSO to 100 mg/ml, and suspended with 0.5% tragacanth solution 1 mg/ml. Male ddy mice, weighing about 30 g, were orally administered the test compound solution. After one hour, blood was collected from the heart under anesthesia with Nembutal (Dainippon Pharmaceutical Co., Ltd.) and centrifuged to obtain plasma. The collected plasma (125 μl) was mixed with 10% DMSO (120 μl) and ethyl acetate (720 μl). After centrifugation, the ethyl acetate layer was collected and evaporated. The residue was dissolved and diluted serially as test samples with 10% DMSO. Chymase inhibitory activities of test samples were measured in the same manner as described in Experiment 1. In this chymase inhibitory assay of test samples, 0.1 mol/1000 ml sodium phosphate buffer, pH 7.4 contained 5 mmol/1000 ml ethylenediaminetetraacetic acid (EDTA) disodium salt, 0.77 mmol/1000 ml diisopropyl fluorophosphate (DFP) and 8 mmol/1000 ml dipyridyl. Plasma concentrations of test compounds were calculated from calibration curves.
The calibration curve was obtained in the following manner. Test compounds (0.06-60 ng) were added into the control plasma. The control plasma was treated in the same manner as for test samples. Finally, chymase inhibitory activities of the 10% DMSO-dissolved residues were measured and plotted against the amount of test compounds.

For `Cc1noc(C)c1C(=O)N[C@H](C(=O)N1CCC[C@H]1C(=O)N[C@@H](Cc1csc2ccccc12)C(=O)C(F)(F)F)C(C)C` [I-A-1, N-[(1S)-2-((2S)-2-{N-[(1S)-1-(benzo[b]thiophen-3-yl-methyl)-3,3,3-trifluoro-2-oxopropyl]carbamoyl}pyrrolidinyl)-1-(methylethyl)-2-oxoethyl](3,5-dimethylisoxazol-4-yl)carboxamide], the figures for the IC50 in data set [1] and in data set [2] were 3.8 nM and 55 nM, respectively. Further, the “Dye leakage inhibition rate (%)” value in data set [3] was 34%. In data set [4], the “treatment-related finding (body weight, diet consumption, heart, liver, kidney weight, necropsy finding, hematology, blood chemistry)” value was “no treatment-related finding”. Besides, the concentration at 1 h in data set [5] turned out to be 0.48 µg/mL.
On to `CC[C@H](NC(=O)c1c(C)noc1C)C(=O)N1CCC[C@H]1C(=O)N[C@@H](Cc1csc2ccccc12)C(=O)C(F)(F)F` [I-A-3, N-[(1S)-2-((2S)-2-{N-[(1S)-1-(benzo[b]thiophen-3-ylmethyl)-3,3,3-trifluoro-2-oxopropyl]carbamoyl}pyrrolidinyl)-1-ethyl-2-oxoethyl](3,5-dimethylisoxazol-4-yl)carboxamide], for which the 50% inhibitory concentration (IC50) in data set [1] came to 9.3 nM; in data set [2], 50 nM. In data set [5], this molecule displayed a concentration at 1 h of 0.32 µg/mL.
As to `Cc1noc(C)c1C(=O)N[C@@H](C)C(=O)N1CCC[C@H]1C(=O)N[C@@H](Cc1csc2ccccc12)C(=O)C(F)(F)F` [I-A-5, N-[(1S)-2-((2S)-2-{N-[(1S)-1-(benzo[b]thiophen-3-ylmethyl)-3,3,3-trifluoro-2-oxopropyl]carbamoyl}pyrrolidinyl)-1-methyl-2-oxoethyl](3,5-dimethylisoxazol-4-yl)carboxamide], the figures for the IC50 in data set [1] and in data set [2] were 16 nM and 83 nM, respectively. Also, the concentration at 1 h in data set [5] was found to be 0.63 µg/mL.
`Cc1nnsc1C(=O)N[C@H](C(=O)N1CCC[C@H]1C(=O)N[C@@H](Cc1csc2ccccc12)C(=O)C(F)(F)F)C(C)C` [I-A-20, N-[(1S)-2-((2S)-2-{N-[(1S)-1-(benzo[b]thiophen-3-ylmethyl)-3,3,3-trifluoro-2-oxopropyl]carbamoyl}pyrrolidinyl)-1-(methylethyl)-2-oxoethyl](4-methyl(1,2,3-thiadiazol-5-yl))carboxamide]: the IC50 in data set [1] turned out to be 5.1 nM; in data set [2] it was 36 nM. Further, the “Dye leakage inhibition rate (%)” value in data set [3] is 59%. Besides, in data set [5], the concentration at 1 h turned out to be 0.57 µg/mL.
Regarding `CC[C@@H](C)[C@H](NC(=O)c1c(C)noc1C)C(=O)N1CCC[C@H]1C(=O)N[C@@H](Cc1csc2ccccc12)C(=O)C(F)(F)F` [I-A-4, N-[1-((1R)-1-methylpropyl)(1S)-2-((2S)-2-{N-[(1S)-1-(benzo[b]thiophen-3-ylmethyl)-3,3,3-trifluoro-2-oxopropyl]carbamoyl}pyrrolidinyl)-2-oxoethyl](3,5-dimethylisoxazol-4-yl)carboxamide], the results for the IC50 in data set [1] and in data set [2] were 12 nM and 57 nM, respectively. The molecule also gave a concentration at 1 h in data set [5] of 0.94 µg/mL.
Consider `Cc1noc(C)c1C(=O)N[C@H](C(=O)N1CCC[C@H]1C(=O)N[C@@H](Cc1ccc2ccccc2c1)C(=O)C(F)(F)F)C(C)C` [I-A-2, N-[(1S)-2-((2S)-2-{N-[(1S)-3,3,3-trifluoro-1-(2-naphthylmethyl)-2-oxopropyl]carbamoyl}pyrrolidinyl)-1-(methylethyl)-2-oxoethyl]-(3,5-dimethylisoxazol-4-yl)carboxamide], for which the IC50 was determined as 54 nM in data set [1] and 83 nM in data set [2]. This molecule also came in with a concentration at 1 h in data set [5] of 2.7 µg/mL.
